In ChEMBL document CHEMBL4130505, “4-Quinolone hybrids and their antibacterial activities” (Eur J Med Chem, 2017):
Converted amounts (≈) assume the structure as drawn. One block for each compound: values may come before it.

Assays:
[1] = Solubility of the compound in water; assay type: physicochemical
Klebsiella pneumoniae = assay: Antibacterial activity against Klebsiella pneumoniae by microdilution method; assay type: functional
Escherichia coli [2] = assay: Antibacterial activity against Escherichia coli NCTC 10419 infected in CF mouse assessed as protection against bacterial infection administered orally at 1 and 4 hrs post infection measured after 1 week; assay type: functional, organism-based
Escherichia coli [3] = assay: Potency index, ratio of ciprofloxacin EC50 to compound EC50 for antibacterial activity against Escherichia coli NCTC 10419 infected in CF mouse; assay type: functional
Escherichia coli [4] = assay: Potency index, ratio of ciprofloxacin MIC to compound MIC for Escherichia coli NCTC 10419; assay type: functional
Escherichia coli [5] = assay: Antibacterial activity against Escherichia coli; assay type: functional
Escherichia coli [6] = assay: Potency index, ratio of ciprofloxacin MIC to compound MIC for Escherichia coli; assay type: functional
Escherichia coli [7] = assay: microbe, parasite or virus in culture; details: NCTC 10419
Description: Antibacterial activity against Escherichia coli NCTC 10419 after 18 to 20 hrs by agar dilution method

solubility [1]: 22.5 mg/mL
Structure (SMILES): CO/N=C1\CCN(c2cc3c(cc2F)c(=O)c(C(=O)O)cn3C2CC2)CC1N.CS(=O)(=O)O (stereo unspecified)

MIC (Klebsiella pneumoniae): 8 µg/mL (≈ 22.2 µM)
Structure (SMILES): CC1=NOc2c(N3CCN(C)CC3)c(F)cc3c(=O)c(C(=O)O)cn1c23

MIC (Klebsiella pneumoniae): 8 µg/mL (≈ 20.3 µM)
Structure (SMILES): CC1=NOc2c(N3CCc4ccccc4C3)c(F)cc3c(=O)c(C(=O)O)cn1c23

EC50 (Escherichia coli [2]): 0.62 mg/kg
Structure (SMILES): COc1cc(Cc2cnc(/N=C3\C(=O)N(CN4CCN(c5cc6c(cc5F)c(=O)c(C(=O)O)cn6C5CC5)CC4)c4ccc(C)cc43)nc2N)cc(OC)c1OC
Ratio EC50 (Escherichia coli [3]): 2
Ratio (Escherichia coli [4]): 5.5

MIC (Escherichia coli [5]): 0.11 µg/mL (≈ 0.199 µM)
Structure (SMILES): O=C1OCC(OCCN2CCN(c3cc4c(cc3F)c(=O)c(C(=O)O)cn4C3CC3)CC2)=C1c1ccccc1F
Ratio (Escherichia coli [6]): 50

EC50 (Escherichia coli [2]): 1.25 mg/kg
MIC (Escherichia coli [7]): 1.1 nM (≈ 0.364 ng/mL)
Structure (SMILES): O=C(O)c1cn(C2CC2)c2cc(N3CCNCC3)c(F)cc2c1=O [CIPROFLOXACIN]

MIC (Klebsiella pneumoniae): 8 µg/mL (≈ 22.3 µM)
Structure (SMILES): CC1=NOc2c(N3CCC(C)CC3)c(F)cc3c(=O)c(C(=O)O)cn1c23
